Read-outs that look alike come from different tables or passages of the source.
Assays:
[1] = test system: 2008 human ovarian carcinoma cells; assay: Colony forming assay, effect of EGF on sensitivity to cytotoxic agents; assay type: cell-based
cellular cAMP = assay: Determination of cellular cAMP content; assay type: cell-based; conditions: for cAMP level, 10 min. mean: 10 min treatment; for cAMP level, 10 min. mean / cAMP level, 60 min. mean: means of 6 experiments; for cAMP level, 60 min. mean: 60 min treatment
[2] = Colony formation, TPA sensitization to DDP with cycloheximide (CHM); assay type: cell-based; conditions: 2 μM DDP with 10^-7 M TPA 1 h
2008 cells [3] = assay: Colony forming (colonogenic) assay, effect of TPA, phorbol and staurosporine on DDP sensitivity
2008/C13*5 cells = assay: Colonogenic assay, effect of TPA on DDP sensitivity of DDP-resistant cells; assay type: cell-based, human; conditions: TPA and DDP concurrently for 1 h
Description: The following cell lines were used in these studies: 2008 human ovarian carcinoma (Disaia, et al., Am. J. Obstet. Gynecol. 114:978 (1972)), COLO 316 human ovarian carcinoma (Woods et al., Cancer Res. 39:4449 (1979)), a DDP resistant variant 2008/C13*, derived from the parent 2008 cell line (Andrews, et al., Cancer Res. 45:6250 (1985)), A549 non-small cell lung cancer (Lieber et al., Int. J. Cancer 17:62 (1976)), NCI-H520 squamous cell lung cancer (Brower et al., Cancer Res. 46: 798 (1986)), NCI-H596 adenosquamous lung cancer (Banks-Schlegel et al., Cancer Res. 45: 1187 (1985)), UMC 31 small cell lung cancer cells (Graziano et al., Genes, Chromosomes and Cancer 3: 283 (1991)), GLC4 small cell lung cancer cells (Zijlstra et al., Cancer Res. 47: 1780 (1987)), UMCC10b head and neck cancer cells (Krause et al., Arch. Otolayngol. 107: 703 (1981)), 5637 bladder cancer cells (Fogh et al., J. Natl. Cancer Inst. 58: 209 (1977)), MIA PaCa-2 pancreatic cancer cells (Yunis et al., Int. […]
Colony forming assays were used to assess the effect of each drug on the sensitivity of various tumor cell lines to cytotoxic agents (Andrews, et al., Chem.-Biol. Interact 65:51-58 (1988)). […] Colonies of over 60 cells were counted macroscopically.
The 2008/C13*5 cell line is 8-10-fold resistant to DDP. […] Drug cytotoxicity was determined by colonogenic assay on plastic dishes. […]

human KB carcinoma cells = conditions: TPA treatment; cited from earlier work
2008 cells [4] = assay: Cellular accumulation of [195mPt]DDP; assay type: cell-based, human; conditions: concurrent 60 min
Procedure: Cell-associated ^195m Pt was determined by as a measure of DDP accumulation. For DDP accumulation studies, subconfluent monolayers were treated with 37° C. RPMI 1640 medium containing 20 μM [^195m Pt]-DDD. The dishes were immediately returned to the incubater. After 1 h incubation, the medium was aspirated, the cells were washed rapidly with 4° C. PBS 4 times. Two ml of 1N NaOH was added and the cells allowed to digest overnight. A forty μl aliquot was used for determination of protein content by the method of Bradford (Bradford, Anal. Biochem. 72:248-254 (1976)), and the remaining […] was counted in glass tubes on a Trak 1191 gamma counter (Tracer Analytic, EIK Grove Village, Ill.). Columns represent the mean values of 3 experiments performed with duplicate cultures. The bars represent the standard deviation.
Cultured 2008 cells were treated concurrently with [^195m Pt]DDP and TPA for 60 min. A vehicle control consisting of an appropriate dilution of acetone was run concurrently. […] Cells treated with medium alone contained 140±13 pmol/mg of protein, whereas those treated with the acetone control contained 141±7 pmol/mg of protein, and those treated with TPA contained 143±21 pmol/mg of protein.

human EGF receptor = assay: Expression of human EGF receptor in transfected C127 cells (monoclonal antibody 528 staining); assay type: cell-based; conditions: Desferrioxamine 10 μM for 60 hs
[5] = test system: C127 mouse fibroblasts transfected with the human EGF receptor gene; assay: Tetrazolium (MTT) growth rate assay, DDP sensitivity; assay type: cell-based
Procedure: Expression of the transferrin receptor gene is normally under the control of the transferrin […], and is regulated by iron (Owen and Kuhn, EMBO J. 6:1287 (1987)). Incubation with the iron chelator desferrioxamine induces expression of the transferrin receptor gene (Bridges and Cudkowicz, J. Biol. Chem. 259:12970 (1984)). […] Closed squares, transfected […] mouse fibroblasts pretreated with desferrioxamine; open squares, untreated cells. […] Louis, Mo.) was prepared at 1 mg/ml in DME media and on day 7, 50 μl are added to the microculture wells. After a 4 h incubation at 37° C., all the media was removed from each well, and 150 μl of 100% DMSO (dimethyl sulfoxide) was added to solubilize the MTT-formazan product. After thorough mixing, absorbance at 540 nm was measured with a Molecular Devices Vmax Kinetic microplate reader.

[6] = EGF and the cytotoxic agent concurrently for 1 h
[7] = Homo sapiens, Ovarian carcinoma cell, 1 h, read-out: IC50 in absence of EGF
[8] = mean ± SD of at least 3 experiments
[9] = read-out: IC50 in presence of EGF, EGF and the cytotoxic agent concurrently for 1 h

In the case of O=c1[nH]cc(F)c(=O)[nH]1 [5-fluorouracil], the “effect of EGF on sensitivity of 2008 cells to the agent (in words)” value (shortened to “effect of EGF”) [1, 6] is reported as “significant increase in sensitivity”, the IC50 [1, 7] is reported as 20 µM and the “Dose modifying factor (ratio of the IC50 values in control and EGF-treated cells)” value [1, 8] is reported as 1.8 ± 0.3. It also gave an IC50 [1, 9] of 11 µM.
In the case of C=C[C@@]1(C)CC(=O)[C@]2(O)[C@@]3(C)[C@@H](O)CCC(C)(C)[C@@H]3[C@H](O)[C@H](OC(C)=O)[C@@]2(C)O1 [Forskolin], the “increase in cAMP content” value (cellular cAMP) is reported as 297 fold, the “cAMP level, 10 min. mean” value (cellular cAMP) is reported as 2135.0 pmol/mg protein and the “cAMP level, 60 min. mean” value (cellular cAMP) is reported as 6365.0 pmol/mg protein.
With CCCCCCCCCCCCCC(=O)O[C@@H]1[C@@H](C)[C@@]2(O)[C@@H](C=C(CO)C[C@]3(O)C(=O)C(C)=C[C@@H]23)[C@H]2C(C)(C)[C@]12OC(C)=O [TPA] the “survival, % of control (S.D.)” value ([2]; absence of CHM) was 33±5%, the “survival, % of controls (S.D.)” value ([2]; presence of CHM 5 μg/ml) was 41±7% and the “cAMP level, 10 min. mean” value (cellular cAMP) was 2.7 pmol/mg protein. For the same compound, the “cAMP level, % of the untreated control” value (cellular cAMP; 60 min) was 38%, the “cAMP level, % of the vehicle control” value (cellular cAMP; 60 min) was 65% and the “cAMP level, 60 min. mean” value (cellular cAMP) was 8.2 pmol/mg protein. For the same compound, the “interaction between TPA and DDP, median effect analysis” value (2008 cells [3]) was “truly synergistic”, the “loss of TPA sensitization” value (2008 cells [3]; 0.1 μM TPA 1 h, 2 μM DDP 1 h) was “largely disappeared by 7 h” and the “survival, % of control” value (2008 cells [3]; 2 μM DDP plus 0.1 μM TPA) was 38±16%. The “survival normalized to 2 μM DDP alone = 100%” value (2008 cells [3]; 2 μM DDP plus TPA, no staurosporine) was 44%, the “DDP sensitization after TPA pretreatment” value (2008 cells [3]; 24-h exposure to 0.1 μM TPA followed by 1-h exposure to DDP) was “a similar degree of sensitization was observed” and the “increase in DDP sensitivity” value (2008 cells [3]; TPA and DDP concurrently for 1 h) was 2.5 fold. For the same compound, the “toxicity of TPA by itself” value (2008 cells [3]; concentrations) was “did not cause any toxicity by itself”, the “DDP sensitization under continuous exposure” value (2008 cells [3]; continuous exposure to both TPA and DDP for the full period of colony formation) was “no change in DDP sensitivity was evident” and the “sensitization to DDP” value (2008/C13*5 cells) was 2.6 fold. The “decrease in sensitivity to etoposide and vincristine” value (human KB carcinoma cells) was 50% and the “effect of TPA on cellular accumulation of [195mPt]DDP” value (2008 cells [4]) was “neither the acetone nor the TPA produced any effect on cellular accumulation”.
With N.N.O=C([O-])C1(C(=O)[O-])CCC1.[Pt+2] [carboplatin] the “effect of EGF” value [1, 6] was “significant increase in sensitivity”, the “Dose modifying factor (ratio of the IC50 values in control and EGF-treated cells)” value [1, 8] was 1.8 ± 0.4 and the IC50 ([1]; read-out: IC50 in absence of EGF, cytotoxic agent for 1 h, no EGF) was 120 µM. The IC50 [1, 9] was 67 µM.
In the case of CC(=O)N(O)CCCCCNC(=O)CCC(=O)N(O)CCCCCNC(=O)CCC(=O)N(O)CCCCCN [desferrioxamine], the “increase in number of human EGF receptors” value (human EGF receptor) is reported as “approximately 2 fold”, the “modulation of DDP sensitivity in the absence of EGF” value ([5]; 10 μM desferrioxamine, no EGF) is reported as “did not modulate the sensitivity of transfected C127 cells in the absence of EGF” and the “toxicity to transfected C127 mouse fibroblasts” value ([5]; 10 μM, prolonged incubation for 2 weeks) is reported as “non-toxic”. The “increase in sensitivity to the cytotoxicity of DDP vs control cells” value ([5]; desferrioxamine treated cells, in the presence of 10 nM EGF) was “approximately 2 fold”.
For COc1cccc2c1C(=O)c1c(O)c3c(c(O)c1C2=O)C[C@@](O)(C(=O)CO)C[C@@H]3O[C@H]1C[C@H](N)[C@H](O)[C@H](C)O1 [doxorubicin], the “effect of EGF” value [1, 6] was “no significant effect”, the IC50 [1, 7] was 1.5 µM and the “Dose modifying factor (ratio of the IC50 values in control and EGF-treated cells)” value [1, 8] was 1.1 ± 0.2. The IC50 [1, 9] was 1.4 µM.
In the case of N[C@@H](Cc1ccc(N(CCCl)CCCl)cc1)C(=O)O [melphalan], the “Dose modifying factor (ratio of the IC50 values in control and EGF-treated cells)” value [1] is reported as 1.4 ± 0.4, the “effect of EGF” value [1] is reported as “the effect did not reach the level of statistical significance” and the IC50 [1, 7] is reported as 12 µM. The IC50 ([1]; read-out: IC50 in presence of EGF) was 9 µM.
With CC1=C[C@H]2[C@@]3(O)[C@H](C)[C@@H](O)[C@]4(O)[C@H]([C@@H]3C=C(CO)C[C@]2(O)C1=O)C4(C)C [phorbol] the “effect of phorbol on DDP sensitivity” value (2008 cells [3]; 10^7 M phorbol for 1-h with DDP) was “failed to enhance DDP sensitivity, and, in fact slightly reduced it”.
In the case of CN[C@@H]1C[C@H]2O[C@@](C)([C@@H]1OC)n1c3ccccc3c3c4c(c5c6ccccc6n2c5c31)C(=O)NC4 [staurosporine], the “effect of staurosporine by itself on sensitivity to DDP” value (2008 cells [3]; control experiments) is reported as “did not enhance or inhibit sensitivity to DDP” and the “survival, % of that produced by DDP alone” value (2008 cells [3]; staurosporine pretreatment 1 h, then DDP and TPA (all three agents)) is reported as 96%.
For CC(=O)O[C@H]1C(=O)[C@@]2(C)[C@H]([C@H](OC(=O)c3ccccc3)[C@]3(O)C[C@H](OC(=O)[C@H](O)[C@@H](NC(=O)c4ccccc4)c4ccccc4)C(C)=C1C3(C)C)[C@]1(OC(C)=O)CO[C@@H]1C[C@@H]2O [taxol], the “effect of EGF” value [1, 6] was “significant increase in sensitivity”, the IC50 [1, 7] was 0.01 µM and the IC50 ([1]; Homo sapiens, Ovarian carcinoma cell, 1 h, read-out: IC50 in presence of EGF) was 0.007 µM. The “Dose modifying factor (ratio of the IC50 values in control and EGF-treated cells)” value [1, 8] was 1.4 ± 0.1.

Reference: patent publication US5597798A, “Taxol and epidermal growth factor used to enhance treatment of ovarian cancer” (The Regents of the University of California, priority 1994, dated 1997)
